From patent publication US10166218B2, “3-(1H-indol-2-yl)-1H-pyrazolo[3,4-C]pyridines and therapeutic uses thereof” (Samumed, LLC, priority 2015, dated 2019)

Legend:
[1] = tested on: primary human fibroblasts derived from IPF patients (LL29 cells) treated with TGF-β1; α-smooth muscle actin (αSMA); experiment: Inhibition of the fibrotic process: αSMA staining in TGF-β1 treated primary human fibroblasts from IPF patients (LL29 cells); format: cell-based; settings: Fibroblast, 96 h, TGF-β1 20 ng/mL, 4 days; for EC50: % cells positive for αSMA; for inhibition at 10 µM: αSMA, read-out: percent inhibition at 10 μM (given for EC50 of >10 μM)
How it was run: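 Potency reflects suppression of TGF-β1-driven αSMA expression in IPF patient fibroblasts over 4 days. Values are EC50s from normalized αSMA-positive cell counts, with % inhibition at 10 μM when EC50 exceeded 10 μM.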

[2] = tested on: primary human mesenchymal stem cells (hMSCs); experiment: Induction of chondrogenesis in primary human mesenchymal stem cells (chondrogenic nodules); format: cell-based; settings: 144 h, 6 days; for EC50: concentration required to induce 50% levels of chondrogenesis of TGF-β3 positive control, read-out: Conc (nM) of 50% TGF-β3 activity; for Emax: nodules, relative to TGF-β3 (10 ng/mL) positive control, read-out: Max. Activity as % TGF-β3 activity
Procedure: Representative compounds were screened using primary human mesenchymal stem cells (hMSCs) to determine their ability to induce chondrogenesis (process by which cartilage is developed).
Primary human mesenchymal stem cells (hMSCs) were purchased from Lonza (Walkersville, Md.) and expanded in Mesenchymal Stem Cell Growth Media (Lonza). Cells between passage 3 and 6 were used for the experiments.
Each compound was dissolved in DMSO as a 10 mM stock and used to prepare compound source plates. Serial dilution (1:3, 6-point dose-response curves from 2700 nM to 10 nM) and compound transfer was performed using the ECHO 550 (Labcyte, Sunnyvale, Calif.) into 96-well clear bottom assay plates (Greiner Bio-One) with appropriate DMSO backfill for a final DMSO concentration of 0.03%. hMSCs were plated at 20,000 cells/well in 250 μL/well Incomplete Chondrogenic Induction Medium (Lonza; DMEM, dexamethasone, ascorbate, insulin-transferrin-selenium [ITS supplement], gentamycin-amphotericin [GA-1000], sodium pyruvate, proline and L-glutamine). TGF-β3 (10 ng/mL) was used as a positive control for differentiation while negative control wells were treated with 75 nL DMSO for normalization and calculating EC50 values. Cells were incubated at 37° C. and 5% CO2 for 6 days. To image chondrogenic nodules, the cells were fixed using 4% formaldehyde (Electron Microscopy Sciences), and stained with 2 μg/mL Rhodamine B (Sigma-Aldrich) and 20 μM Nile Red (Sigma-Aldrich) [Johnson K., et. al, A Stem Cell-Based Approach to Cartilage Repair, Science, (2012), 336(6082), 717-721]. The nodules imaged (4 images per well at 4× magnification) by excitation at 531 nm and emission at 625 nm and quantified using the CellInsight CX5 (Thermo Scientific). Number of nodules in each well was normalized to the average of 3 DMSO treated wells on the same plate using Excel (Microsoft Inc.). The normalized averages (fold change over DMSO) of 3 replicate wells for each compound concentration were calculated. Due to solubility limitations of some of the compounds, curve fitting was incomplete leading to inaccurate EC50 determinations.
Using TGF-β3 as a positive control, the concentration of representative compounds required to induce 50% levels of chondrogenesis is reported. In addition, the maximum activity of each compound and the respective dose that each compound reached maximum chondrogenesis activity is reported.

CCNCc1cncc(-c2cc3c(-c4cc5c(-c6ccc(F)cc6)cccc5[nH]4)n[nH]c3cn2)c1 [Compound 34, N-((5-(3-(4-(4-Fluorophenyl)-1H-indol-2-yl)-1H-pyrazolo[3,4-c]pyridin-5-yl)pyridin-3-yl)methyl)ethanamine]
EC50 [1]: 29 nM | EC50 [2]: 900 nM | Emax [2]: 268%

Fc1ccc(-c2cccc3[nH]c(-c4n[nH]c5cnc(-c6cncc(CN7CCCC7)c6)cc45)cc23)cc1 [Compound 42, 3-(4-(4-Fluorophenyl)-1H-indol-2-yl)-5-(5-(pyrrolidin-1-ylmethyl)pyridin-3-yl)-1H-pyrazolo[3,4-c]pyridine]
EC50 [1]: 78 nM | EC50 [2]: 300 nM | Emax [2]: 164%

Nc1cncc(-c2cc3c(-c4cc5c(-c6ccccc6F)cccc5[nH]4)n[nH]c3cn2)c1 [Compound 59, 5-(3-(4-(2-Fluorophenyl)-1H-indol-2-yl)-1H-pyrazolo[3,4-c]pyridin-5-yl) pyridin-3-amine]
EC50 [1]: 144 nM | EC50 [2]: 30 nM | Emax [2]: 94%

Fc1ccccc1-c1cccc2[nH]c(-c3n[nH]c4cnc(-c5cncc(CN6CCCCC6)c5)cc34)cc12 [Compound 71, 3-(4-(2-Fluorophenyl)-1H-indol-2-yl)-5-(5-(piperidin-1-ylmethyl)pyridin-3-yl)-1H-pyrazolo[3,4-c]pyridine]
EC50 [1]: 157 nM | Emax [2]: 18%

CCC(=O)Nc1cncc(-c2cc3c(-c4cc5c(-c6cccnc6)cccc5[nH]4)n[nH]c3cn2)c1 [Compound 85, N-(5-(3-(4-(Pyridin-3-yl)-1H-indol-2-yl)-1H-pyrazolo[3,4-c]pyridin-5-yl)pyridin-3-yl)propionamide]
EC50 [1]: 553 nM | Emax [2]: 101%

c1cncc(-c2cc3c(-c4cc5c(-c6cccnc6)cccc5[nH]4)n[nH]c3cn2)c1 [Compound 88, 5-(Pyridin-3-yl)-3-(4-(pyridin-3-yl)-1H-indol-2-yl)-1H-pyrazolo[3,4-c]pyridine]
EC50 [1]: 305 nM | EC50 [2]: 30 nM | Emax [2]: 141%

CC(C)C(=O)Nc1cncc(-c2cc3c(-c4cc5c(-c6cccnc6)cccc5[nH]4)n[nH]c3cn2)c1 [Compound 93, N-(5-(3-(4-(Pyridin-3-yl)-1H-indol-2-yl)-1H-pyrazolo[3,4-c]pyridin-5-yl)pyridin-3-yl)isobutyramide]
EC50 [1]: 298 nM | EC50 [2]: 10 nM | Emax [2]: 201%

O=C(Nc1cncc(-c2cc3c(-c4cc5c(-c6cccnc6)cccc5[nH]4)n[nH]c3cn2)c1)c1ccccc1 [Compound 95, N-(5-(3-(4-(Pyridin-3-yl)-1H-indol-2-yl)-1H-pyrazolo[3,4-c]pyridin-5-yl)pyridin-3-yl)benzamide]
EC50 [1]: 166 nM | EC50 [2]: 100 nM | Emax [2]: 236%

c1cncc(-c2cccc3[nH]c(-c4n[nH]c5cnc(-c6cncc(CN7CCCC7)c6)cc45)cc23)c1 [Compound 98, 3-(4-(Pyridin-3-yl)-1H-indol-2-yl)-5-(5-(pyrrolidin-1-ylmethyl)pyridin-3-yl)-1H-pyrazolo[3,4-c]pyridine]
EC50 [1]: 1610 nM | Emax [2]: 22%

O=C(Nc1cncc(-c2cc3c(-c4cc5c(-c6ccncc6)cccc5[nH]4)n[nH]c3cn2)c1)C1CCC1 [Compound 133, N-(5-(3-(4-(Pyridin-4-yl)-1H-indol-2-yl)-1H-pyrazolo[3,4-c]pyridin-5-yl)pyridin-3-yl)cyclobutanecarboxamide]
EC50 [1]: 391 nM

c1cc(-c2ccncc2)c2cc(-c3n[nH]c4cnc(-c5cncnc5)cc34)[nH]c2c1 [Compound 139, 3-(4-(Pyridin-4-yl)-1H-indol-2-yl)-5-(pyrimidin-5-yl)-1H-pyrazolo[3,4-c]pyridine]
EC50 [1]: 238 nM

O=C(Nc1cncc(-c2cc3c(-c4cc5c(N6CCCCC6)cccc5[nH]4)n[nH]c3cn2)c1)C1CC1 [Compound 188, N-(5-(3-(4-(Piperidin-1-yl)-1H-indol-2-yl)-1H-pyrazolo[3,4-c]pyridin-5-yl)pyridin-3-yl)cyclopropanecarboxamide]
EC50 [1]: 1370 nM

FC1(F)CCN(Cc2cncc(-c3cc4c(-c5cc6c(N7CCCCC7)cccc6[nH]5)n[nH]c4cn3)c2)C1 [Compound 194, 5-(5-((3,3-Difluoropyrrolidin-1-yl)methyl)pyridin-3-yl)-3-(4-(piperidin-1-yl)-1H-indol-2-yl)-1H-pyrazolo[3,4-c]pyridine]
EC50 [1]: 694 nM

CN1CCN(c2cccc3[nH]c(-c4n[nH]c5cnc(-c6cncc(NC(=O)C7CCC7)c6)cc45)cc23)CC1 [Compound 245]
EC50 [1]: 4610 nM

CC(C)(C)CC(=O)Nc1cncc(-c2cc3c(-c4cc5ccccc5[nH]4)n[nH]c3cn2)c1 [Compound 268, N-(5-(3-(1H-Indol-2-yl)-1H-pyrazolo[3,4-c]pyridin-5-yl)pyridin-3-yl)-3,3-dimethylbutanamide]
EC50 [1]: 9980 nM

O=C(Nc1cncc(-c2cc3c(-c4cc5ccccc5[nH]4)n[nH]c3cn2)c1)C1CCCCC1 [Compound 275, N-(5-(3-(1H-Indol-2-yl)-1H-pyrazolo[3,4-c]pyridin-5-yl)pyridin-3-yl) cyclohexanecarboxamide]
EC50 [1]: 3270 nM

CS(=O)(=O)NCc1cc(F)cc(-c2cccc3[nH]c(-c4n[nH]c5cnc(-c6cncc(NC(=O)c7ccccc7)c6)cc45)cc23)c1 [Compound 487, N-(5-(3-(4-(3-Fluoro-5-(methylsulfonamidomethyl)phenyl)-1H-indol-2-yl)-1H-pyrazolo[3,4-c]pyridin-5-yl)pyridin-3-yl)benzamide]
EC50 [1]: 5010 nM

Nc1cncc(-c2cc3c(-c4cc5ncccc5[nH]4)n[nH]c3cn2)c1 [Compound 507, 5-(3-(1H-Pyrrolo[3,2-b]pyridin-2-yl)-1H-pyrazolo[3,4-c]pyridin-5-yl) pyridin-3-amine]
EC50 [1]: > 10000 nM | inhibition at 10 µM [1]: 0%

c1cnc2cc(-c3n[nH]c4cnc(-c5cncc(CNCC6CCCC6)c5)cc34)[nH]c2c1 [Compound 529, 1-(5-(3-(1H-Pyrrolo[3,2-b]pyridin-2-yl)-1H-pyrazolo[3,4-c]pyridin-5-yl)pyridin-3-yl)-N-(cyclopentylmethyl)methanamine]
EC50 [1]: > 10000 nM | inhibition at 10 µM [1]: 0%

Fc1ccccc1-c1cccc2[nH]c(-c3n[nH]c4cnc(-c5cn[nH]c5)cc34)cc12 [Compound 567, 3-(4-(2-Fluorophenyl)-1H-indol-2-yl)-5-(1H-pyrazol-4-yl)-1H-pyrazolo[3,4-c]pyridine]
EC50 [1]: 27 nM

c1cc(N2CCCCC2)c2cc(-c3n[nH]c4cnc(-c5cncc(OC6CCCCC6)c5)cc34)[nH]c2c1 [Compound 635, 5-(5-(Cyclohexyloxy)pyridin-3-yl)-3-(4-(piperidin-1-yl)-1H-indol-2-yl)-1H-pyrazolo[3,4-c]pyridine]
EC50 [1]: 1320 nM

c1cc(-c2ccoc2)c2cc(-c3n[nH]c4cnc(-c5cn[nH]c5)cc34)[nH]c2c1 [Compound 711, 3-(4-(Furan-3-yl)-1H-indol-2-yl)-5-(1H-pyrazol-4-yl)-1H-pyrazolo[3,4-c]pyridine]
EC50 [1]: 125 nM

c1csc(-c2cccc3[nH]c(-c4n[nH]c5cnc(C6CCNCC6)cc45)cc23)c1 [Compound 725, 5-(Piperidin-4-yl)-3-(4-(thiophen-2-yl)-1H-indol-2-yl)-1H-pyrazolo[3,4-c]pyridine]
EC50 [1]: > 10000 nM | inhibition at 10 µM [1]: 4.5%

Cn1cc(-c2cc3c(-c4cc5ncccc5[nH]4)n[nH]c3cn2)cn1 [Compound 1022, 5-(1-Methyl-1H-pyrazol-4-yl)-3-(1H-pyrrolo[3,2-b]pyridin-2-yl)-1H-pyrazolo[3,4-c]pyridine]
EC50 [1]: > 10000 nM | inhibition at 10 µM [1]: 44.5%

CN(C)CCOc1cncc(-c2cc3c(-c4cc5ncccc5[nH]4)n[nH]c3cn2)c1 [Compound 1029, 2-((5-(3-(1H-Pyrrolo[3,2-b]pyridin-2-yl)-1H-pyrazolo[3,4-c]pyridin-5-yl)pyridin-3-yl)oxy)-N,N-dimethylethan-1-amine]
EC50 [1]: 1720 nM
